In US9617244B2, “Antibacterial quinoline derivatives” (JANSSEN PHARMACEUTICA NV, priority 2012, dated 2017):
≈ marks a conversion by molar mass, not a printed value.

Assays:
[1] = tested on: Staphylococcus aureus (ATCC29213); experiment: In-vitro anti-bacterial activity, microtitre plate assay, IC90 determination (non-mycobacterial strains); type: cell-based; conditions: 90% inhibitory concentration for bacterial growth, resazurin fluorescence; for IC90 STA B29213: 24 hours; for IC90: Staphylococcus aureus, ATCC29213, 24 h, read-out: IC90 STA B29213
Procedure: D.2. In-Vitro Method for Testing Compounds for Anti-Bacterial Activity Against Various Non-Mycobacterial Strains
Preparation of Bacterial Suspensions for Susceptibility Testing:
The bacteria used in this study were grown overnight in flasks containing 100 ml Mueller-Hinton Broth (Becton Dickinson—cat. no. 275730) in sterile de-ionized water, with shaking, at 37° C. Stocks (0.5 ml/tube) were stored at −70° C. until use. Bacteria titrations were performed in microtiter plates to detect the TCID50, in which TCID50 represents the dilution that gives rise to bacterial growth in 50% of inoculated cultures. In general, an inoculum level of approximately 100 TCID50 was used for susceptibility testing.
Anti Bacterial Susceptibility Testing: IC90 Determination
Flat-bottom, sterile 96-well plastic microtiter plates were filled with 180 μl of sterile deionized water, supplemented with 0.25% BSA. Subsequently, stock solutions (7.8× final test concentration) of compounds were added in 45 μl volumes in column 2 Serial five-fold dilutions (45 μl in 180 μl) were made directly in the microtiter plates from column 2 to reach column 11. Untreated control samples with (column 1) and without (column 12) inoculum were included in each microtiter plate. Depending on the bacteria type, approximately 10 to 60 CFU per well of bacteria inoculum (100 TCID50), in a volume of 100 μl in 2.8× Mueller-Hinton broth medium, was added to the rows A to H, except column 12. The same volume of broth medium without inoculum was added to column 12 in row A to H. The cultures were incubated at 37° C. for 24 hours under a normal atmosphere (incubator with open air valve and continuous ventilation). At the end of incubation, one day after inoculation, the bacterial growth was quantitated fluorometrically. Therefore resazurin (0.6 mg/ml) was added in a volume of 20 μl to all wells 3 hours after inoculation, and the plates were re-incubated overnight. A change in colour from blue to pink indicated the growth of bacteria. The fluorescence was read in a computer-controlled fluorometer (Cytofluor Biosearch) at an excitation wavelength of 530 nm and an emission wavelength of 590 nm. The % growth inhibition achieved by the compounds was calculated according to standard methods. The IC90 (expressed in μg/ml) was defined as the 90% inhibitory concentration for bacterial growth.

[2] = tested on: Mycobacterium smegmatis (ATCC607); experiment: In-vitro anti-bacterial activity against strain M. Smegmatis ATCC607; type: cell-based; conditions: 90% inhibitory concentration for bacterial growth, Alamar Blue fluorescence; for IC90 MSM 607: 48 hours; for IC90: Mycolicibacterium smegmatis, ATCC607, 48 h, read-out: IC90 MSM 607
Procedure: D.1. In-Vitro Method for Testing Compounds for Anti-Bacterial Activity Against Strain M. Smegmatis ATCC607
Flat-bottom, sterile 96-well plastic microtiter plates were filled with 180 μl of sterile deionized water, supplemented with 0.25% BSA. Subsequently, stock solutions (7.8× final test concentration) of compounds were added in 45 μl volumes to a series of duplicate wells in column 2 so as to allow evaluation of their effects on bacterial growth. Serial five-fold dilutions (45 μl in 180 μl) were made directly in the microtiter plates from column 2 to 11 using a customised robot system (Zymark Corp., Hopkinton, Mass.). Pipette tips were changed after every 3 dilutions to minimize pipetting errors with high hydrophobic compounds. Untreated control samples with (column 1) and without (column 12) inoculum were included in each microtiter plate. Approximately 250 CFU per well of bacteria inoculum, in a volume of 100 μl in 2.8× Mueller-Hinton broth medium, was added to the rows A to H, except column 12. The same volume of broth medium without inoculum was added to column 12 in row A to H. The cultures were incubated at 37° C. for 48 hours in a humidified 5% CO2 atmosphere (incubator with open air valve and continuous ventilation). At the end of incubation, two days after inoculation, the bacterial growth was quantitated fluorometrically. Therefore Alamar Blue (10×) was added to all wells in a volume of 20 μl and plates were incubated for another 2 hours at […]
The fluorescence was read in a computer-controlled fluorometer (Cytofluor, Biosearch) at an excitation wavelength of 530 nm and an emission wavelength of 590 nm (gain 30). The percentage growth inhibition achieved by the compounds was calculated according to standard methods and expressed as IC90 (μg/ml) which defines the 90% inhibitory concentration for bacterial growth.

Structure (SMILES) | IC90 STA B29213 [1] | IC90 MSM 607 [2] | IC90 [2] | IC90 [1]
CS(=O)(=O)c1ccc2[nH]c(=O)c(C(c3ccc(Cl)cc3)C3(O)CCNC(Cc4ccc(F)cc4)C3)cc2c1 (centres unmarked) [Compound 57] | 3.50 mg/L (≈ 6.31 µM) | 3.50 mg/L (≈ 6.31 µM) |  | 
CS(=O)(=O)c1ccc2[nH]c(=O)c(C(c3ccc(Cl)cc3)C3(O)CCNC(Cc4ccc(F)cc4)C3)cc2c1 (centres unmarked) [Compound 58] | >13.94 mg/L | >13.94 mg/L |  | 
CS(=O)(=O)c1ccc2[nH]c(=O)c(C(c3ccc(Cl)cc3)C3(O)CCNC(Cc4ccc(F)cc4)C3)cc2c1 (centres unmarked) [Compound 59] | 6.99 mg/L (≈ 12.6 µM) | 5.55 mg/L (≈ 10 µM) |  | 
CCCN(C)CC1CC(O)(C(c2ccc(Cl)cc2)c2cc3cc(Cl)ccc3nc2OC)CCN1 (centres unmarked) [Compound 64] | 7.93 mg/L (≈ 15.8 µM) | 3.98 mg/L (≈ 7.92 µM) |  | 
COc1nc2ccc(Br)cc2cc1C(c1ccc(Cl)cc1)C1(O)CCNC(Cc2ccccc2)C1 (centres unmarked) [Compound 77] | 5.49 mg/L (≈ 9.95 µM) | 4.36 mg/L (≈ 7.9 µM) |  | 
O=c1[nH]c2ccc(Br)cc2cc1C(c1cccc(Cl)c1)C1(O)CCNC(Cc2ccccc2)C1 (centres unmarked) [Compound 85] | 7.23 mg/L (≈ 13.4 µM) |  | 3.62 mg/L (≈ 6.73 µM) | 
CSc1nc2ccc(Br)cc2cc1C(c1ccc(Cl)cc1)C1(O)CCNC(Cc2ccccc2)C1 (centres unmarked) [Compound 89] |  |  | 1.8 mg/L (≈ 3.17 µM) | 3.58 mg/L (≈ 6.3 µM)
COc1nc2ccc(Cl)cc2cc1C(c1ccc(Cl)cc1)C1(O)CCNC(Cc2ccccc2)C1 (centres unmarked) [Compound 95] | 2.02 mg/L (≈ 3.98 µM) | 1.43 mg/L (≈ 2.82 µM) |  | 
Cc1cc(F)ccc1C1CC(O)(C(c2ccc(Cl)cc2)c2cc3cc(Br)ccc3[nH]c2=O)CCN1 (centres unmarked) [Compound 106] | 1.87 mg/L (≈ 3.36 µM) | <0.93 mg/L |  | 
Cc1cc(F)ccc1C1CC(O)(C(c2ccc(Cl)cc2)c2cc3cc(Br)ccc3[nH]c2=O)CCN1 (centres unmarked) [Compound 107] |  | 2.65 mg/L (≈ 4.77 µM) |  | 1.87 mg/L (≈ 3.36 µM)
Cc1cc(F)ccc1C1CC(O)(C(c2ccc(Cl)cc2)c2cc3cc(Br)ccc3[nH]c2=O)CCN1 (centres unmarked) [Compound 110] | 1.87 mg/L (≈ 3.36 µM) | 1.87 mg/L (≈ 3.36 µM) |  | 
COc1nc2ccc(C(=O)O)cc2cc1C(c1ccc(Cl)cc1)C1(O)CCNC(Cc2ccccc2)C1 (centres unmarked) [Compound 118] |  |  | > 20.6 mg/L | > 20.6 mg/L
CS(=O)(=O)c1ccc2[nH]c(=O)c(C(c3ccc(Cl)cc3)C3(O)CCNC(Cc4ccccc4)C3)cc2c1 (centres unmarked) [Compound 119] | >16.90 mg/L | >16.90 mg/L |  | 
CS(=O)(=O)c1ccc2[nH]c(=O)c(C(c3ccc(Cl)cc3)C3(O)CCNC(Cc4ccccc4)C3)cc2c1 (centres unmarked) [Compound 120] | 6.76 mg/L (≈ 12.6 µM) | 5.37 mg/L (≈ 10 µM) |  | 
COc1nc2ccc(Br)cc2cc1C(c1ccc(Cl)cc1)C1(O)CCNC(C)C1 (centres unmarked) [Compound 125] | 3.00 mg/L (≈ 6.3 µM) | 3.00 mg/L (≈ 6.3 µM) |  | 
O=c1[nH]c2ccc(Br)cc2cc1C(c1ccc(Cl)cc1)C1(O)CCNC(Cc2ccc(F)c(F)c2)C1 (centres unmarked) [Compound 126] | 3.85 mg/L (≈ 6.71 µM) | 3.06 mg/L (≈ 5.33 µM) |  | 
O=c1[nH]c2ccc(Br)cc2cc1C(c1ccc(Cl)cc1)C1(O)CCNC(Cc2ccc(F)c(F)c2)C1 (centres unmarked) [Compound 127] | 1.93 mg/L (≈ 3.36 µM) | 3.06 mg/L (≈ 5.33 µM) |  | 

Structure (SMILES) | IC90 STA B29213 [1] | IC90 MSM 607 [2] | IC90 [2] | IC90 [1]
O=c1[nH]c2ccc(Br)cc2cc1C(c1ccc(Cl)cc1)C1(O)CCNC(Cc2ccccc2)C1 (centres unmarked) [Compound 128] | 4.56 mg/L (≈ 8.48 µM) |  | 3.62 mg/L (≈ 6.73 µM) | 
CC1CC(O)(C(c2ccc(Cl)cc2)c2cc3cc(Br)ccc3[nH]c2=O)CCN1 (centres unmarked) [Compound 129] |  |  | 7.9 mg/L (≈ 17.1 µM) | 12.5 mg/L (≈ 27.1 µM)
CC1CC(O)(C(c2ccc(Cl)cc2)c2cc3cc(Br)ccc3[nH]c2=O)CCN1 (centres unmarked) [Compound 130] | 11.60 mg/L (≈ 25.1 µM) | 5.81 mg/L (≈ 12.6 µM) |  | 
CC1CC(O)(C(c2ccc(Cl)cc2)c2cc3cc(Br)ccc3[nH]c2=O)CCN1 (centres unmarked) [Compound 131] | >6.27 mg/L | 4.98 mg/L (≈ 10.8 µM) |  | 
O=c1[nH]c2ccc(Br)cc2cc1C(c1ccc(Cl)cc1)C1(O)CCNC(Cc2ccc(F)c(F)c2)C1 (centres unmarked) [Compound 133] | 3.85 mg/L (≈ 6.71 µM) | 3.06 mg/L (≈ 5.33 µM) |  | 
O=c1[nH]c2ccc(Br)cc2cc1C(c1ccc(Cl)cc1)C1(O)CCNC(Cc2ccc(F)c(F)c2)C1 (centres unmarked) [Compound 134] | 3.07 mg/L (≈ 5.35 µM) | 3.86 mg/L (≈ 6.73 µM) |  | 
Cc1cc(F)ccc1C1CC(O)(C(c2cccc(Cl)c2)c2cc3cc(Br)ccc3[nH]c2=O)CCN1 (centres unmarked) [Compound 135] | 1.84 mg/L (≈ 3.31 µM) | 1.84 mg/L (≈ 3.31 µM) |  | 
Cc1cc(F)ccc1C1CC(O)(C(c2cccc(Cl)c2)c2cc3cc(Br)ccc3[nH]c2=O)CCN1 (centres unmarked) [Compound 136] | 2.08 mg/L (≈ 3.74 µM) | 1.47 mg/L (≈ 2.64 µM) |  | 
Cc1cc(F)ccc1C1CC(O)(C(c2cccc(Cl)c2)c2cc3cc(Br)ccc3[nH]c2=O)CCN1 (centres unmarked) [Compound 137] | 3.69 mg/L (≈ 6.64 µM) | 1.65 mg/L (≈ 2.97 µM) |  | 
Cc1cc(F)ccc1C1CC(O)(C(c2cccc(Cl)c2)c2cc3cc(Br)ccc3[nH]c2=O)CCN1 (centres unmarked) [Compound 138] | 2.35 mg/L (≈ 4.23 µM) | 1.18 mg/L (≈ 2.12 µM) |  | 
COc1nc2ccccc2cc1C(c1ccc(Cl)cc1)C1(O)CCNC(Cc2ccc(F)c(F)c2)C1 (centres unmarked) [Compound 139] |  | 1.78 mg/L (≈ 3.5 µM) |  | 2 mg/L (≈ 3.93 µM)
COc1nc2ccccc2cc1C(c1ccc(Cl)cc1)C1(O)CCNC(Cc2ccc(F)c(F)c2)C1 (centres unmarked) [Compound 140] | 2.55 mg/L (≈ 5.01 µM) | 0.72 mg/L (≈ 1.41 µM) |  | 
COc1nc2ccc(SC)cc2cc1C(c1ccccc1)C1(O)CCNC(Cc2ccccc2)C1 (centres unmarked) [Compound 141] | 7.77 mg/L (≈ 16 µM) | 4.37 mg/L (≈ 9.02 µM) |  | 
Cc1cc(F)ccc1C1CC(O)(C(c2cccc(Cl)c2)c2cc3cc(Br)ccc3[nH]c2=O)CCN1 (centres unmarked) [Compound 143] | 1.82 mg/L (≈ 3.27 µM) | 2.04 mg/L (≈ 3.67 µM) |  | 
Cc1cc(F)ccc1C1CC(O)(C(c2cccc(Cl)c2)c2cc3cc(Br)ccc3[nH]c2=O)CCN1 (centres unmarked) [Compound 144] | 3.63 mg/L (≈ 6.53 µM) | 3.24 mg/L (≈ 5.83 µM) |  | 
Cc1cc(F)ccc1C1CC(O)(C(c2cccc(Cl)c2)c2cc3cc(Br)ccc3[nH]c2=O)CCN1 (centres unmarked) [Compound 145] | 2.92 mg/L (≈ 5.25 µM) | 2.32 mg/L (≈ 4.17 µM) |  | 
Cc1cc(F)ccc1C1CC(O)(C(c2cccc(Cl)c2)c2cc3cc(Br)ccc3[nH]c2=O)CCN1 (centres unmarked) [Compound 146] | 2.35 mg/L (≈ 4.23 µM) | 1.87 mg/L (≈ 3.36 µM) |  | 
